How the values were obtained:
Format in all cases: functional
Oryctolagus cuniculus [1] = organism: Oryctolagus cuniculus; assay: Maximum platelet aggregation units at 1.9*10e-4 molar concentration was determined.
[2] = Ratio of MABP to that of platelet EC50 of the compound.
Oryctolagus cuniculus [3] = organism: Oryctolagus cuniculus; assay: Effective concentration required to produce 50% of the maximum platelet aggregation using rabbit platelet-rich plasma was determined.
Rattus norvegicus = organism: Rattus norvegicus; assay: Hypotensive activity of compound was determined in hypertensive rats, as dose required to decrease the mean arterial blood pressure 50 mmHg was determined
Oryctolagus cuniculus [4] = organism: Oryctolagus cuniculus; assay: Maximum platelet aggregation units at 5*10e-4 molar concentration was determined.
Oryctolagus cuniculus [5] = organism: Oryctolagus cuniculus; assay: Maximum platelet aggregation units at 5*10e-6 molar concentration was determined.
Oryctolagus cuniculus [6] = organism: Oryctolagus cuniculus; assay: Maximum platelet aggregation units at 5*10e-5 molar concentration was determined.
Oryctolagus cuniculus [7] = organism: Oryctolagus cuniculus; assay: Maximum platelet aggregation units at 1.3*10e-5 molar concentration was determined.

Row | SMILES | EC50 (Oryctolagus cuniculus [3]) | Max aggregation response (Oryctolagus cuniculus [1]) | Ratio [2] | Dose (Rattus norvegicus) | Max aggregation response (Oryctolagus cuniculus [4]) | Max aggregation response (Oryctolagus cuniculus [5]) | Max aggregation response (Oryctolagus cuniculus [6]) | Max aggregation response (Oryctolagus cuniculus [7])
1 | CCCCCCCCCCCCCCCCOCC(OC(C)=O)C(C)OP(=O)([O-])OCC[N+](C)(C)C (centres undefined) | 3.2 µM | 70 | 0.2 | 0.0634 mg/kg |  |  |  | 
2 | CCCCCCCCCCCCCCCCOC(C)(C)C(COP(=O)([O-])OCC[N+](C)(C)C)OC(C)=O (centres undefined) | 11 µM |  | 0.8 | 0.8757 mg/kg |  |  | 64 | 
3 | CCCCCCCCCCCCCCCCOCC(COP(=O)([O-])OCC[N+](C)(C)C)OC(C)=O (centres undefined) [PLATELET ACTIVATING FACTOR] | 0.0194 µM |  | 0.65 | 0.00125 mg/kg |  |  |  | 75

Further compounds by falling EC50 (Oryctolagus cuniculus [3]), results first:

Row | EC50 (Oryctolagus cuniculus [3]) | SMILES | Max aggregation response (Oryctolagus cuniculus [1]) | Ratio [2] | Dose (Rattus norvegicus) | Max aggregation response (Oryctolagus cuniculus [4]) | Max aggregation response (Oryctolagus cuniculus [5]) | Max aggregation response (Oryctolagus cuniculus [6]) | Max aggregation response (Oryctolagus cuniculus [7])
4 | 1.5 µM | CCCCCCCCCCCCCCCCOCCC(COP(=O)([O-])OCC[N+](C)(C)C)OC(C)=O (centres undefined) | 50 | 0.16 | 0.0243 mg/kg |  |  |  | 
5 | 1.4 µM | CCCCCCCCCCCCCCCCOCC(CCOP(=O)([O-])OCC[N+](C)(C)C)OC(C)=O (centres undefined) |  | 0.34 | 0.0475 mg/kg |  | 65 |  | 
6 | 0.51 µM | CCCCCCCCCCCCCCCCOC(C)C(COP(=O)([O-])OCC[N+](C)(C)C)OC(C)=O (centres undefined) |  | 0.14 | 0.00712 mg/kg | 65 |  |  | 

From ChEMBL document CHEMBL1123119, “Analogues of platelet activating factor (PAF). 2. Some modifications of the glycerine backbone” (J Med Chem, 1985)
